Results from patent publication US4576949A, “Use of 5,6,7,8-tetrahydroquinolines and 5,6-dihydropyrindines as leukotriene and lipoxygenase inhibitors and the novel 3-substituted compounds therein” (The Upjohn Company, priority 1984, dated 1986).

Test system: LTC/LTD
Experiment: inhibition of leukotriene C and D (LTC/LTD) synthesis in vitro
Assay type: cell-based
Settings: for activity at 1 µg / LTC/LTD inhibition, expressed as % of control, at 1.0: 1.0 μg; for activity at 1 µg: read-out: LTC/LTD inhibition, expressed as % of control, at 1.0; for activity at 10 µg: read-out: LTC/LTD inhibition, expressed as % of control, at 10 μg; for activity at 0.1 µg: 0.1 μg, read-out: LTC/LTD inhibition, expressed as % of control, at 0.1
Description: Thus, the following TABLE II provides examples of the biological activity as determined by methods known in the art (see Bach, M. K., et al., 6,9-deepoxy-6,9-phenylimino-Δ-6,8-prostaglandin I1, (U-60,257). A New Inhibitor of Leukotriene C and D Synthesis: In Vitro Studies. Prostaglandins 23, 759-771, 1982.) for the present invention having formula II.
^a Values for inhibition are expressed as % of control.
LTC/LTD is leukotriene C or D.

Compound	activity at 1 µg [%]	activity at 10 µg (10 μg) [%]	activity at 0.1 µg [%]	LTC/LTD inhibition, expressed as % of control, at 1.0	LTC/LTD inhibition, expressed as % of control, at 10 μg (10 μg)
COC(=O)C=Cc1cc2c(nc1C)C(=Cc1ccccc1)CCC2 [3-[5,6,7,8-Tetrahydro-2-methyl-8-(phenylmethylene)-3-quinolinyl]-2-propenoic acid methyl ester]	99	117	–	–	–
CC(=O)Oc1ccc(C=C2CCc3cccnc32)cc1 [4-[(5,6-Dihydro-7H-pyrindin-7-ylidene)methyl]phenol acetate]	88	45	–	–	–
CCOC(=O)c1cc2c(nc1C)C(Cc1ccccc1)CCC2 (centres unmarked) [5,6,7,8-Tetrahydro-2-methyl-8-(phenylmethyl)-3-quinolinecarboxylic acid ethyl ester]	–	–	110	–	–
CCOC(=O)c1cc2c(nc1C)C(=Cc1ccccc1)CCC2 [5,6,7,8-Tetrahydro-2-methyl-8-(phenylmethylene)-3-quinolinecarboxylic acid ethyl ester]	101	–	–	96 % of control	–
CCOC(=O)c1cc2c(nc1C)C(CCCCCO)CCC2 (centres unmarked) [5,6,7,8-Tetrahydro-8-(5-hydroxypentyl)-2-methyl-3-quinolinecarboxylic acid ethyl ester]	121	–	–	140 % of control	–
CCOC(=O)c1cc2c(nc1C)C(=Cc1ccc(OC(C)=O)cc1)CCC2 [8-[[4-(Acetyloxy)phenyl]methylene]-5,6,7,8-tetrahydro-2-methyl-3-quinolinecarboxylic acid ethyl ester]	78	34	89	–	–
CCOC(=O)c1cc2c(nc1C)C(CC(=O)CCCO)CCC2 (centres unmarked) [N; CHCO(CH2)3 OH; n 1; R8 CH3; R9 CO2 Et, 5,6,7,8-Tetrahydro-8-(5-hydroxy-2-oxopentyl)-2-methyl-3-quinolinecarboxylicacid ethyl ester]	52	41	19	–	–
C(=C1CCCc2cccnc21)c1ccccc1 [N; XII wherein M is H; n 1; R8 H; R9 H, 5,6,7,8-Tetrahydro-8-(phenylmethylene)-quinoline]	105	33	–	–	–
CCOC(=O)c1cc2c(nc1C)C(=Cc1ccco1)CCC2 [N; XIV; n 1; R8 CH3; R9 CO2 Et, 8-(2-Furanylmethylene)-5,6,7,8-tetrahydro-2-methyl-3-quinolinecarboxylic acid ethyl ester]	–	16	–	–	31 % of control
CCOC(=O)c1cc2c(nc1C)C(CC1CCCO1)CCC2 (centres unmarked) [N; XIX; n 1; R8 CH3; R9 CO2 Et]	67	52	–	–	–
C(=C1CCc2cccnc21)c1cccs1 [N; XV; n 0; R8 H; R9 H, 5,7 -Dihydro-7-(2-thienylmethylene)-5H-1-pyrindine]	67	15	–	–	–
